Measurements taken from US12691101B2, “Compound and method for preventing or treating of respiratory diseases comprising the same as an active ingredient” (YONSEI UNIVERSITY, UNIVERSITY - INDUSTRY FOUNDATION (UIF), priority 2019, dated 2026).

Tests used:
CHO-K1 cells = experiment: Cell viability, MTS colorimetric analysis, CHO-K1; type: cell-based, Chinese hamster; settings: 24 hours, up to 30 μM
Method: (A) Pendrin-mediated Cl^−/I^− exchange activity (mean±S.E., n=5). The indicated concentration of F56 was pretreated for 10 minutes. (B, C) Representative tracing of intracellular pH. The application of Cl^− free solution induced intracellular alkalization through pendrin-mediated Cl^−/HCO3^− and Cl^−/OH^− exchange activity. The indicated concentration of F56 was pretreated for 10 minutes. (D-F) The pendrin-mediated Cl^−/I^− exchange activity was measured in CHO-K1 cells expressing human pendrin. The indicated concentration of F56, PDSinh-A01 and PDSinh-C01 was pretreated for 10 minutes. (G) Summary of dose-response of F56, PDSinh-A01 and PDSinh-C01 (mean±S.E., n=3). (H, I) Effect of F56, PDSinh-A01 and PDSinh-C01 on the cell viability in NIH3T3 (H) and CHO-K1 (I) cells. The cells were treated with F56, PDSinh-A01 and PDSinh-C01 for 24 hours. The cell viability was measured by MTS colorimetric analysis (mean±S.E., n=3). NTC, non-transfected cells.
The cells were treated with F10 for 24 hours. The cell viability was determined by MTS colorimetric analysis (mean±S.E., n=3).

[1] = test system: OVA-sensitized and challenged mice; experiment: OVA-induced allergic asthma mouse model; type: in vivo; settings: for OVA-induced airway sensitivity / airway resistance: pretreatment, F56 10 mg/kg i.p. 12 hours before OVA challenge, methacholine
Method: (A) Protocol of induction of allergic airway inflammation solution after allergen antigen challenge in a wild-type mouse and time course. F56 (10 mg/kg three times/day) was applied after tertiary OVA challenge. (B) Airway reactivity measured by whole body plethysmography in an OVA-induced asthma model. Penh was measured in response to an increased dose of methacholine (mean±S.E., n=4). (C) Representative PAS staining of airway tissue. Size bar, 100 μm. (D) Summary of PAS positive cells (mean±S.E., n=4). * P<0.05.
Experiments were performed using 8-week-old BALB/c mice. The experimental protocol was approved by the Animal Ethics Committee of Yonsei University. Mice were housed and maintained in an animal facility under standard laboratory conditions [12/12 hours light/dark cycle, controlled temperature (21±2° C.) and humidity (55±5%) and access to any food and water]. All the experiments were performed according to the guidelines of Yonsei University Animal Research Committee. Mice were divided to 3 groups, vehicle group (vehicle-treated PBS-sensitized and challenged mice), OVA group (vehicle-treated OVA-sensitized and challenged mice) and OVA+F56 group (F56-treated OVA-sensitized and challenged mice). Age and sex-matched 8-week-old mice were sensitized by i.p. injection of OVA (Sigma-Aldrich) on Days 0 and 14. The sensitization emulsion was composed of 50 μg OVA and 2 mg aluminum potassium sulfate in 200 μL saline solution. On Days 21, 22 and 23, sensitized mice were lightly anesthetized by isoflurane inhalation and challenged with 100 μg OVA in 30 μL saline solution administered intranasally. The control mice were treated in the same manner as PBS. F56 (10 mg/kg) was administered by i.p injection 12 hours before i.n. OVA challenge, respectively.
The airway response for methacol (MCh) 24 hours after the last OVA exposure was measured using FlexiVent system (Scireq, Montreal, QC, Canada). Mice were anesthetized by intraperitoneal injection of the mixture of Zoletil (30 mg/kg; Virbac Laboratories, Carros, France) and Rompun (10 mg/kg; Bayer, Leverkusen, Germany), and then tracheostomy was performed to connect to FlexiVent. The base line airway resistance was measured after spraying saline solution for 10 seconds using Aeroneb ultrasonic nebulizer (SCIREQ). After measuring the base line, the mice were exposed to nebulized methacholine at an increased concentration (0, 1.56, 3.13, 6.25, 12.5 and 25 mg/mL). In addition, using whole body plethysmography (Buxco, Miami, FL, USA), the bronchial airway responsibility was measured. As a major index of the airway responsibility, enhanced pause (Penh) was used. Under the base line condition, Penh was measured for 2 minutes. Then, the mice were exposed to inhalation of PBS or MCh (25 mg/mL) for 2 minutes. The Penh result was expressed as an absolute value.
After evaluation of the airway responsiveness, BAL was performed. The cells were pelleted by centrifugation and resuspended in PBS to obtain the number of cells. Cytospin was prepared with a cell centrifuge (Shandon Cytospin 4 cell centrifuge; Thermo Scientific, MA, USA, USA) and stained with Diff-Quik Stain Set (Dade Behring, USA, DE, USA) to evaluate inflammation.
For evaluation of airway inflammation, left lung was fixed in 4% paraformaldehyde overnight and embedded in paraffin. A histological slide was prepared from 5-μm section, and stained with hematoxylin and eosin (H&E). The inflammation score showing the severity of bronchial inflammation was evaluated by 3 blind observers using a method reported conventionally. To evaluate goblet cell hyperplasia, the section was stained with periodic acid-Schiff (PAS) using PAS staining kit (Sigma-Aldrich), according to the manufacturer's protocol. The nasal cavity mucous membrane and HNE cells collected on the transwell were softly washed with PBS and fixed with 4% paraformaldehyde. […]

[2] = established model of allergic asthma, 10 mg/kg three times/day after tertiary OVA challenge

| SMILES | cytotoxicity in CHO-K1 cells (CHO-K1 cells) | serum level of OVA-specific IgG ([1]; OVA-challenged mice) | goblet cells, inflammation infiltration and epithelial thickness in central airway (histology) ([1]; OVA-challenged mice, 10 mg/kg i.p.) | average inflammation score ([1]; OVA-challenged mice, versus non-treated group) | number of eosinophils and neutrophils in BALF ([1]; OVA-sensitized mice, 10 mg/kg i.p.) | OVA-induced airway sensitivity [1, 2] | PAS positive cells in the airway epithelium [1, 2] | OVA-induced airway sensitivity / airway resistance [1] |
| --- | --- | --- | --- | --- | --- | --- | --- | --- |
| CC(C)(C)c1ccc(C2=NC(=Cc3cccs3)C(=O)O2)cc1 [F56, 2-(4-(tert-butyl)phenyl)-4-(thiophen-2-ylmethylene)oxazol-5(4H)-one] | did not show cytotoxicity up to 30 μM | not changed | weekended | significantly lower | reduced | significantly reduced | significantly reduced | significantly weakened |
| CC(C)(C)c1ccc(C2=NC(=Cc3ccc[nH]3)C(=O)O2)cc1 [F10, 4-((1H-pyrrol-2-yl)methylene)-2-(4-(tert-butyl)phenyl)oxazol-5 (4H)-one] | did not show any cytotoxicity up to 30 μM |  |  |  |  |  |  | reduced the airway resistance |
